The values below come from PMC6312923 (Life Science Alliance, 2018).

Test [1] has as its system Cdt1. Put plainly: Co-immunoprecipitation of Cdt1 with FLAG-tagged Cdt2. It is filed as cell-based, human. To be noted: anti-FLAG IP, HEK293, with or without UV irradiation. The text has this: Figure 3. […] HEK293 cells were transfected with plasmids expressing the indicated Cdt2 fused to a C-terminal FLAG tag, cross-linked, and precipitated with anti-FLAG antibodies (arrows). […] The bands in the blank lanes for Cul4A blotting correspond to the cross-reacting bands to pre-stained marker. […] HEK293 cells were transfected with the indicated plasmids and treated as in A. * indicates nonspecific bands derived from IgGs. (C) A schematic drawing of the Cdt2 domain structure highlighting the C-terminal PIP box and a sequence alignment of PIP boxes in various organisms. The alanine-changed PIP box mutant of Cdt2 was shown (PIP-3A) together with Cdt1 PIP box. (D) HEK293 cells were transfected with Cdt2^WT or PIP box mutant (Cdt2^PIP-3A) C-terminally fused to a FLAG tag, treated as in B, and Cdt2 was precipitated with anti-FLAG resin.
Next, we examined the interaction of CRL4^Cdt2 ligase with its target protein Cdt1, using HEK293 cells alone and cells transfected with Cdt2^WT or Cdt2^PIP-3A, with or without UV irradiation. […]

For test [2], the system named is Cdt1 degradation in S/G2, U2OS cells. Kind of test: Cdt1-positive cells among cyclin A-positive U2OS cells. The test is classed as cell-based, human. As to conditions: siCdt2 and/or siSkp2. The procedure: Next, we examined Cdt1 degradation after the onset of the S phase in the Cdt2^PIP-3A-expressing cells. Cyclin A is present in the S and G2 phase, when Cdt1 should be degraded. Thus, Cdt1 should be present in cells that are negative for cyclin A, and absent in cells that are positive for cyclin A ([Nishitani et al, 2006]; [Xouri et al., 2007a], [2007b]). Cdt1 degradation after the onset of the S phase is carried out by two ubiquitin ligases, CRL1^Skp2 and CRL4^Cdt2. We depleted the substrate recognition subunits, Cdt2 and/or Skp2, by siRNA, and the percentage of Cdt1 positive cells among cyclin A–positive cells was assessed by immunofluorescence. […]
Figure 8. […] The frequency of Cdt1-positive (+) cells among cyclin A–positive (+) cells was calculated (n = 3). […] (D) Cells treated with siCdt2 or control siLuc were measured for their nuclear size (n = 200 for each), and are shown in a scatter plot. […]
For Western blotting, whole-cell lysates were prepared by lysing cell pellets directly in SDS–PAGE buffer. […] Protein levels were analysed by ImageJ software.
Double-stranded RNAs were transfected at 100 nM using Oligofectamine (Invitrogen) or HiPerFect (QIAGEN). […] For Cdt1 silencing in Fig 1A and B, unsychronized HeLa cells were transfected twice with 200 nM of Cdt1 siRNA or control luciferase siRNA using Lipofectamine 2000 with a time interval of 24 h and were analysed 48 h after the second transfection. […]

Consider “Cdt2: Cdt2 tagged with GFP, transiently expressed in MCF7 cells”, for which, in test [1], the “co-precipitation of PCNA and Cdt1” value is “both PCNA and Cdt1 were precipitated, and their amounts were notably increased after UV irradiation”. The “rescue of Cdt1 degradation in cell cycle” value in test [2] was “fully complemented the depletion of Cdt2, and also the co-depletion of Skp2”.

B1: Cdt2^PIP-3A: Cdt2 with I709, Y712, and F713 all mutated to alanine (protein, UniProt Q9NZJ0 1-730, looked up, variant I709A Y712A F713A)
Denticleless protein homolog: MLFNSVLRQPQLGVLRNGWSSQYPLQSLLTGYQCSGNDEHTSYGETGVPVPPFGCTFSSAPNMEHVLAVANEEGFVRLYNTESQSFRKKCFKEWMAHWNAVFDLAWVPGELKLVTAAGDQTAKFWDVKAGELIGTCKGHQCSLKSVAFSKFEKAVFCTGGRDGNIMVWDTRCNKKDGFYRQVNQISGAHNTSDKQTPSKPKKKQNSKGLAPSVDFQQSVTVVLFQDENTLVSAGAVDGIIKVWDLRKNYTAYRQEPIASKSFLYPGSSTRKLGYSSLILDSTGSTLFANCTDDNIYMFNMTGLKTSPVAIFNGHQNSTFYVKSSLSPDDQFLVSGSSDEAAYIWKVSTPWQPPTVLLGHSQEVTSVCWCPSDFTKIATCSDDNTLKIWRLNRGLEEKPGGDKLSTVGWASQKKKESRPGLVTVTSSQSTPAKAPRAKCNPSNSSPSSAACAPSCAGDLPLPSNTPTFSIKTSPAKARSPINRRGSVSSVSPKPPSSFKMSIRNWVTRTPSSSPPITPPASETKIMSPRKALIPVSQKSSQAEACSESRNRVKRRLDSSCLESVKQKCVKSCNCVTELDGQVENLHLDLCCLAGNQEDLSKDSLGPTKSSKIEGAGTSISEPPSPISPYASESCGTLPLPLRPCGEGSEMVGKENSSPENKNWLLAMAAKRKAENPSPRSPSSQTPNSRRQSGKKLPSPVTITPSSMRKACTAAHRKSQEDFCGPEHSTEL
modifications: FLAG tag
notes: Cdt2 with I709, Y712, and F713 all mutated to alanine
Consider B1, for which, in test [1], the “co-precipitation of PCNA and Cdt1” value is on record as “neither Cdt1 nor PCNA co-precipitated well”. Further, the “rescue of Cdt1 degradation in cell cycle” value in test [2] is listed as “not fully rescued”.
